According to patent US20240279278A1, “NMU RECEPTOR 2 AGONISTS” (Boehringer Ingelheim International GmbH, priority 2023, published 2024):
pEC50: −log10 of the molar value. ≈ marks a conversion by molar mass, not a printed value. Residues, ends and D or L forms follow the SMILES beside them.

Tests used:
[1] = physchem; assay type: physicochemical
Protocol: Example 6: Solubility Determination
Peptides (as TFA-salts) were weighed out in a filter unit (Mini-UniPrep Syringeless Filter 0.45 μm, Whatman PVDF), and 0.1 M phosphate buffer at pH 6 to 8 was added to achieve 10 mg/mL final peptide concentration. The peptides were dissolved by shaking the filter units horizontally at 350 rpm for 2 hours at room temperature. Samples were then filtered to remove any insoluble particles. Controls were prepared by weighing out the corresponding peptide solid material and dissolving it in an appropriate vehicle (e.g. buffer or DMSO) to a final concentration of 1 mg/mL. Both, the control and sample were analyzed by reversed phase chromatography. The area under the peak of the sample was compared to the control and the solubility was calculated based on that ratio. The pH was measured and recorded for each sample.

[2] = molecular target: T1, human NMUR1 receptor (Homo sapiens, UniProt Q9HB89); test: IP1 Gq HTRF assay, activation of human NMUR1 in buffer; assay type: cell-based; settings: CHO-K1 cells expressing human NMUR1, stimulation buffer with 0.1% BSA; read-out: EC50 (hNMUR1) buffer
T1 construct: expressed in transfected cells; host or cells: CHO-K1
T1 sequence (Q9HB89 1-426): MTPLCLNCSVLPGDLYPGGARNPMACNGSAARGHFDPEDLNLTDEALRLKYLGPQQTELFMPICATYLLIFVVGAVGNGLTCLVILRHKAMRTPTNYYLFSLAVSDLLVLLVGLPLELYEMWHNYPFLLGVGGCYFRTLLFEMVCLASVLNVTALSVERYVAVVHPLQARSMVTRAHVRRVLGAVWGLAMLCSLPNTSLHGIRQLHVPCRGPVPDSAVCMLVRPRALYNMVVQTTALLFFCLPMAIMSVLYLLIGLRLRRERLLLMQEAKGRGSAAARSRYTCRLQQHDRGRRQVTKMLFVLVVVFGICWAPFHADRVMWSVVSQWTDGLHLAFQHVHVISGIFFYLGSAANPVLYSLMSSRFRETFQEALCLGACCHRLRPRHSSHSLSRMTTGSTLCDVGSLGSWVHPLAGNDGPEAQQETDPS
Procedure, shortened: (§1)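 CHO-K1 cells stably expressing human NMUR1 or NMUR2, seeded 24 h before assay, stimulated with peptide agonists (8-point dose-response, 1% DMSO final) in HEPES/HBSS buffer with 50 mM LiCl and 0.1% BSA, pH 7.4, 1 h at 37 °C. IP1 accumulation read by HTRF competition (665/620 nm); EC50 from 4-parameter sigmoidal fit.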

[3] = molecular target: T2, human NMUR2 receptor (Homo sapiens, UniProt Q9GZQ4); test: IP1 Gq HTRF assay, activation of human NMUR2 in human plasma; assay type: cell-based; set-up: expressed in transfected cells; host or cells: CHO-K1; settings: CHO-K1 cells expressing human NMUR2, 100% human plasma; read-out: EC50 (hNMUR2) human plasma
Procedure, shortened: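 CHO-K1 cells stably expressing human NMUR2 exposed to peptide agonists (8-point dose-response) in 100% human plasma with 50 mM LiCl, 1% DMSO, for 1 h at 37° C. IP1 accumulation read by HTRF competition (665/620 nm ratio). EC50 from 4-parameter sigmoidal fit.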

[4] = molecular target: T2, human NMUR2 receptor; test: IP1 Gq HTRF assay, activation of human NMUR2 in buffer; assay type: cell-based; set-up: expressed in transfected cells; host or cells: CHO-K1; settings: for pEC50: CHO-K1 cells expressing human NMUR2, stimulation buffer with 0.1% BSA, read-out: EC50 (hNMUR2) buffer; for EC50 (hNMUR1)/EC50 (hNMUR2): selectivity for NMUR2 over NMUR1 from IP1 assay in buffer (Example 3)
Procedure, shortened: as §1

[5] = in vivo; set-up: species or system NMRI mice; settings: male, NMRI, mouse, iv
Protocol: Example 5: Pharmacokinetics Intravenous (iv) PK in Mouse Pharmacokinetic parameters of the test compounds were determined after intravenous administration to Naval Medical Research Institute (NMRI) mice. Male NMRI mice were obtained either from Charles River (Germany) or from Janvier (France) weighing approximately 30 g to 40 g. Mice were housed in standard cages with light cycle of 12-hour dark and 12-hour light. Standardized food and water were offered ad libitum to the animals during the whole experimental period. The respective peptide was dissolved in 50 mM phosphate buffer (pH 7.4) containing 3.5% mannitol. Intravenous doses of 30 nmol/kg were given via a tail vein. Serial blood samples were collected from the vena saphena into tubes containing EDTA as anticoagulant at different time points up to 48 hours post dosing. After centrifugation for approximately 5 minutes, plasma samples were transferred to 96-well Polymerase Chain Reaction (PCR) plates, immediately frozen and kept at approximately −20° C. until analyzed for plasma concentration by liquid chromatography mass spectrometry (LC-MS/MS). Individual plasma concentration-time profiles were analyzed by a non-compartmental approach, and the resulting pharmacokinetic parameters were determined.

T2 sequence (Q9GZQ4 whole entry): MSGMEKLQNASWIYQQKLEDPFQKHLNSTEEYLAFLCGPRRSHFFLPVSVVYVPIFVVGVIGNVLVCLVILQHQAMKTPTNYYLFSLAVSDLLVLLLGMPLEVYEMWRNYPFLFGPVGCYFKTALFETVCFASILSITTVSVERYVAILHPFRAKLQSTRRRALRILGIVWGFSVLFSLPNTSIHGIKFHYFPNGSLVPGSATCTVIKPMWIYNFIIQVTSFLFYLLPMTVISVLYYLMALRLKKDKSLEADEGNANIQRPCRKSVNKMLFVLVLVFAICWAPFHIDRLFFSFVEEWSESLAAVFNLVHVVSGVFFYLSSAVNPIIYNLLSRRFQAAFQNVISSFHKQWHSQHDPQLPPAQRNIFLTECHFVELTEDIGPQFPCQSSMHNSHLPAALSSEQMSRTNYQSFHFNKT

SMILES	solubility at 2 h ([1]; pH 7.2) [µg/mL]	pEC50 [2]	pEC50 [3]	pEC50 [4]	MRT [5] [h]	EC50 (hNMUR1)/EC50 (hNMUR2) [4]	solubility at 2 h ([1]; pH 7.6) [µg/mL]
CCCC[C@H](NC(=O)[C@H](CC(C)C)N(C)C(=O)[C@H](Cc1ccccc1)NC(=O)[C@H](Cc1ccc(O)cc1)NC(=O)CN1CCN(CCNC(=O)CN(C)C(=O)CN(C)C(=O)CN(C)C(=O)CN(C)C(=O)CN(C)C(=O)CN(C)C(=O)CN(C)C(=O)CN(C)C(=O)CN(C)C(=O)CC[C@H](NC(=O)CC[C@H](NC(=O)CC[C@H](NC(=O)CCCCCCCCCCCCCCCCC(=O)O)C(=O)O)C(=O)O)C(=O)O)CC1)C(=O)N[C@@H](CCCN)C(=O)N(C)[C@@H](C)C(=O)N[C@@H](CCCNC(=N)N)C(=O)NCC(N)=O [Compound 70, C18DA-gGlu3-Sar9-AEPipAc-Tyr-Phe-NMeLeu-Nle-Orn-NMeAla-Arg-Gly-NH2] (HELM PEPTIDE1{[O=C(O)CCCCCCCCCCCCCCCCC(=O)[*:2]].[gGlu].[gGlu].[gGlu].[Sar].[Sar].[Sar].[Sar].[Sar].[Sar].[Sar].[Sar].[Sar].[O=C(CN1CCN(CCN[*:1])CC1)[*:2]].Y.F.[meL].[Nle].[Orn].[meA].R.G.[am]}$$$$V2.0)	8300 (≈ 3.36 mM)	< 6.00	7.57	8.60			
CCCC[C@H](NC(=O)[C@H](CC(C)C)N(C)C(=O)[C@H](Cc1ccccc1)NC(=O)[C@H](Cc1ccc(O)cc1)NC(=O)CN1CCN(CCNC(=O)CN(C)C(=O)CN(C)C(=O)CN(C)C(=O)CN(C)C(=O)CN(C)C(=O)CN(C)C(=O)CN(C)C(=O)CN(C)C(=O)CN(C)C(=O)CN(C)C(=O)CN(C)C(=O)CN(C)C(=O)CN(C)C(=O)CN(C)C(=O)CN(C)C(=O)CC[C@H](NC(=O)CC[C@H](NC(=O)CC[C@H](NC(=O)CCCCCCCCCCCCCCCCC(=O)O)C(=O)O)C(=O)O)C(=O)O)CC1)C(=O)N[C@@H](CCCNC(=N)N)C(=O)N1CCC[C@H]1C(=O)N[C@@H](CCCNC(=N)N)C(=O)NCC(N)=O [Ref. 2, C18DA-gGlu3-Sar15-AEPipAc-Tyr-Phe-Leu-Nle-Arg-Pro-Arg-Gly-NH2, reference compound] (HELM PEPTIDE1{[O=C(O)CCCCCCCCCCCCCCCCC(=O)[*:2]].[gGlu].[gGlu].[gGlu].[Sar].[Sar].[Sar].[Sar].[Sar].[Sar].[Sar].[Sar].[Sar].[Sar].[Sar].[Sar].[Sar].[Sar].[Sar].[O=C(CN1CCN(CCN[*:1])CC1)[*:2]].Y.F.[meL].[Nle].R.P.R.G.[am]}$$$$V2.0)					7.9		
CCCC[C@H](NC(=O)[C@H](CC(C)C)NC(=O)[C@H](Cc1ccccc1)NC(=O)[C@H](Cc1ccc(O)cc1)NC(=O)CN1CCN(CCNC(=O)CN(C)C(=O)CN(C)C(=O)CN(C)C(=O)CN(C)C(=O)CN(C)C(=O)CN(C)C(=O)CN(C)C(=O)CN(C)C(=O)CN(C)C(=O)CC[C@H](NC(=O)C(=O)CN(C)C(=O)CC[C@H](NC(=O)CC[C@H](NC(=O)CC[C@H](NC(=O)CCCCCCCCCCCCCCCCC(=O)O)C(=O)O)C(=O)O)C(=O)O)C(=O)O)CC1)C(=O)N[C@@H](CCCN)C(=O)N1CCC[C@H]1C(=O)N[C@@H](CCCNC(=N)N)C(=O)NCC(N)=O [Ref. 6, C18DA-gGlu3-Sar12-AEPipAc-Tyr-Phe-Leu-Nle-Orn-Pro-Arg-Gly-NH2, reference compound]					4.2	32.4	
CCCC[C@H](NC(=O)[C@H](CC(C)C)N(C)C(=O)[C@H](Cc1ccccc1)NC(=O)[C@H](Cc1ccc(O)cc1)NC(=O)CN1CCN(CCNC(=O)CN(C)C(=O)CN(C)C(=O)CN(C)C(=O)CN(C)C(=O)CN(C)C(=O)CN(C)C(=O)CC[C@H](NC(=O)CC[C@H](NC(=O)CC[C@H](NC(=O)CCCCCCCCCCCCCCCCC(=O)O)C(=O)O)C(=O)O)C(=O)O)CC1)C(=O)N[C@@H](CCCNC(=N)N)C(=O)N1CCC[C@H]1C(=O)N[C@@H](CCCNC(=N)N)C(=O)NCC(N)=O [Compound 68, C18DA-gGlu3-Sar6-AEPipAc-Tyr-Phe-NMeLeu-Nle-Arg-Pro-Arg-Gly-NH2] (HELM PEPTIDE1{[O=C(O)CCCCCCCCCCCCCCCCC(=O)[*:2]].[gGlu].[gGlu].[gGlu].[Sar].[Sar].[Sar].[Sar].[Sar].[Sar].[O=C(CN1CCN(CCN[*:1])CC1)[*:2]].Y.F.[meL].[Nle].R.P.R.G.[am]}$$$$V2.0)			8.02	8.92			900 (≈ 0.389 mM)
CCCCCCCCCCCCCCCCCCCC(=O)N[C@@H](CCC(=O)N[C@@H](CCC(=O)N[C@@H](CCC(=O)N(C)CC(=O)N(C)CC(=O)N(C)CC(=O)N(C)CC(=O)N(C)CC(=O)N(C)CC(=O)N(C)CC(=O)N(C)CC(=O)N(C)CC(=O)N(C)CC(=O)N(C)CC(=O)N(C)CC(=O)N(C)CC(=O)N(C)CC(=O)N(C)CC(=O)NCCN1CCN(CC(=O)N[C@@H](Cc2ccc(O)cc2)C(=O)N[C@@H](Cc2ccccc2)C(=O)N(C)[C@@H](CC(C)C)C(=O)N[C@@H](CCCC)C(=O)N[C@@H](CCCNC(=N)N)C(=O)N2CCC[C@H]2C(=O)N[C@@H](CCCNC(=N)N)C(=O)NCC(N)=O)CC1)C(=O)O)C(=O)O)C(=O)O [Ref. 3, C20A-gGlu3-Sar15-AEPipAc-Tyr-Phe-NMeLeu-Nle-Orn-Pro-Arg-Gly-NH2, reference compound] (HELM PEPTIDE1{[CCCCCCCCCCCCCCCCCCCC(=O)[*:2]].[gGlu].[gGlu].[gGlu].[Sar].[Sar].[Sar].[Sar].[Sar].[Sar].[Sar].[Sar].[Sar].[Sar].[Sar].[Sar].[Sar].[Sar].[Sar].[O=C(CN1CCN(CCN[*:1])CC1)[*:2]].Y.F.[meL].[Nle].R.P.R.G.[am]}$$$$V2.0)					1.7	6.1	
CCCC[C@H](NC(=O)[C@H](CC(C)C)N(C)C(=O)[C@H](Cc1ccccc1)NC(=O)[C@H](Cc1ccc(O)cc1)NC(=O)CN1CCN(CCNC(=O)CN(C)C(=O)CN(C)C(=O)CN(C)C(=O)CN(C)C(=O)CN(C)C(=O)CN(C)C(=O)CN(C)C(=O)CN(C)C(=O)CN(C)C(=O)CC[C@H](NC(=O)CC[C@H](NC(=O)CC[C@H](NC(=O)CCCCCCCCCCCCCCCCC(=O)O)C(=O)O)C(=O)O)C(=O)O)CC1)C(=O)N[C@@H](CCCNC(=N)N)C(=O)N1CCC[C@H]1C(=O)N[C@@H](CCCNC(=N)N)C(=O)NCC(N)=O [Compound 72, C18DA-gGlu3-Sar9-AEPipAc-Tyr-Phe-NMeLeu-Nle-Arg-Pro-Arg-Gly-NH2] (HELM PEPTIDE1{[O=C(O)CCCCCCCCCCCCCCCCC(=O)[*:2]].[gGlu].[gGlu].[gGlu].[Sar].[Sar].[Sar].[Sar].[Sar].[Sar].[Sar].[Sar].[Sar].[O=C(CN1CCN(CCN[*:1])CC1)[*:2]].Y.F.[meL].[Nle].R.P.R.G.[am]}$$$$V2.0)	9600 (≈ 3.8 mM)		7.98	9.05			
